From the supplement of paper PMC10307832

Tests used:
Test in all cases: relative viability (nuclei count vs DMSO), 5 days (fraction); higher = more cells survive
EHT 1864 + OSI-027 = compound: C1COCCN1CC2=CC(=O)C(=CO2)OCCCCCSC3=C4C=CC(=CC4=NC=C3)C(F)(F)F [EHT 1864] + COc1cccc2cc(-c3nc([C@H]4CC[C@H](C(=O)O)CC4)n4ncnc(N)c34)[nH]c12 [OSI-027] (partner 0.5 µM)
How it was run: (§1)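 Relative viability was taken as the ratio of nuclei in treated wells to nuclei in vehicle wells. Lung cancer cell lines in 1536-well plates received compounds by pin tool one day after seeding, either one drug alone or a fixed anchor-drug dose plus five library-drug doses (not always all listed) in √10 steps. Nuclei were counted on 4× images after 5 days of treatment, and values are medians of duplicate plates.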

EHT 1864 + Lapatinib = compound: C1COCCN1CC2=CC(=O)C(=CO2)OCCCCCSC3=C4C=CC(=CC4=NC=C3)C(F)(F)F [EHT 1864] + CS(=O)(=O)CCNCc1ccc(-c2ccc3ncnc(Nc4ccc(OCc5cccc(F)c5)c(Cl)c4)c3c2)o1 [Lapatinib] (partner 2 µM)
How it was run: as §1

EHT 1864 + Linsitinib = compound: C1COCCN1CC2=CC(=O)C(=CO2)OCCCCCSC3=C4C=CC(=CC4=NC=C3)C(F)(F)F [EHT 1864] + C[C@]1(O)C[C@@H](c2nc(-c3ccc4ccc(-c5ccccc5)nc4c3)c3c(N)nccn32)C1 [Linsitinib] (partner 1 µM)
How it was run: as §1

EHT 1864 + Alpelisib = compound: C1COCCN1CC2=CC(=O)C(=CO2)OCCCCCSC3=C4C=CC(=CC4=NC=C3)C(F)(F)F [EHT 1864] + Cc1nc(NC(=O)N2CCC[C@H]2C(N)=O)sc1-c1ccnc(C(C)(C)C(F)(F)F)c1 [Alpelisib] (partner 2 µM)
How it was run: as §1

| Cell Line | relative viability (EHT 1864 + OSI-027; first compound 0.04 µM) | relative viability (EHT 1864 + OSI-027; first compound 0.1265 µM) | relative viability (EHT 1864 + OSI-027; first compound 0.4 µM) | relative viability (EHT 1864 + OSI-027; first compound 1.265 µM) | relative viability (EHT 1864 + OSI-027; first compound 4 µM) | relative viability (EHT 1864 + Lapatinib; first compound 0.04 µM) | relative viability (EHT 1864 + Lapatinib; first compound 0.1265 µM) | relative viability (EHT 1864 + Lapatinib; first compound 0.4 µM) | relative viability (EHT 1864 + Lapatinib; first compound 1.265 µM) | relative viability (EHT 1864 + Lapatinib; first compound 4 µM) | relative viability (EHT 1864 + Linsitinib; first compound 0.04 µM) | relative viability (EHT 1864 + Linsitinib; first compound 0.1265 µM) | relative viability (EHT 1864 + Linsitinib; first compound 0.4 µM) | relative viability (EHT 1864 + Linsitinib; first compound 1.265 µM) | relative viability (EHT 1864 + Linsitinib; first compound 4 µM) | relative viability (EHT 1864 + Alpelisib; first compound 0.04 µM) | relative viability (EHT 1864 + Alpelisib; first compound 0.1265 µM) | relative viability (EHT 1864 + Alpelisib; first compound 0.4 µM) | relative viability (EHT 1864 + Alpelisib; first compound 1.265 µM) | relative viability (EHT 1864 + Alpelisib; first compound 4 µM) |
| --- | --- | --- | --- | --- | --- | --- | --- | --- | --- | --- | --- | --- | --- | --- | --- | --- | --- | --- | --- | --- |
| 201T | 0.762 | 0.549 | 0.623 | 0.572 | 0.744 | 1.07 | 1 | 1.07 | 1.01 | 1.01 | 1.08 | 1.05 | 1.08 | 0.925 | 1.03 | 1.02 | 1.08 | 0.977 | 0.982 | 1.01 |
| A549 |  |  |  |  |  | 0.927 | 0.894 | 0.996 | 0.914 | 0.625 | 0.598 | 0.658 | 0.641 | 0.599 | 0.639 | 0.637 | 0.735 | 0.694 | 0.805 | 0.712 |
| A-427 | 0.524 | 0.345 | 0.503 | 0.447 | 0.469 | 1.09 | 1.06 | 1 | 1.09 | 1.07 | 1.09 | 1.18 | 1.15 | 1.11 | 1.13 | 1.15 | 1.08 | 1.04 | 1.11 | 1.13 |
| ABC-1 | 0.469 | 0.504 | 0.48 | 0.513 | 0.436 | 1.06 | 1.15 | 0.949 | 0.729 | 1.15 | 0.769 | 0.797 | 0.73 | 0.718 | 0.555 | 0.665 | 1 | 1.05 | 0.92 | 1.07 |
| BEN | 0.303 | 0.278 | 0.297 | 0.299 | 0.302 | 0.811 | 0.638 | 0.671 | 0.556 | 0.666 | 0.862 | 0.801 | 0.879 | 0.851 | 0.985 | 0.941 | 0.825 | 0.92 | 0.938 | 1.1 |
| CAL-12T | 0.591 | 0.437 | 0.593 | 0.552 | 0.8 | 0.63 | 0.562 | 0.677 | 0.675 | 0.799 | 0.824 | 0.667 | 0.79 | 0.824 | 0.838 | 1.23 | 1.14 | 1.08 | 1.25 | 1.05 |
| COR-L23 | 0.821 | 0.467 | 0.647 | 0.796 | 0.747 | 0.975 | 0.814 | 0.86 | 0.825 | 0.889 | 0.94 | 0.921 | 0.942 | 0.949 | 0.873 | 0.832 | 0.878 | 0.815 | 0.855 | 0.76 |
| COR-L 105 | 0.773 | 0.559 | 0.851 | 0.61 | 0.655 | 0.345 | 0.374 | 0.338 | 0.38 | 0.334 | 0.889 | 0.963 | 0.906 | 1.12 | 0.848 | 0.906 | 1.06 | 1.03 | 0.969 | 0.841 |
| Calu-6 |  |  |  |  |  | 1.03 | 0.933 | 1.03 | 1.04 | 0.857 | 0.99 | 0.737 | 0.96 | 0.875 | 0.893 | 0.983 | 0.932 | 0.948 | 1.01 | 0.904 |
| ChaGo-K-1 | 0.512 | 0.476 | 0.7 | 0.562 | 0.517 |  |  |  |  |  |  |  |  |  |  |  |  |  |  |  |
| EBC-1 |  |  |  |  |  | 0.222 | 0.225 | 0.194 | 0.19 | 0.238 | 0.883 | 0.426 | 0.914 | 0.896 | 0.99 | 0.843 | 0.697 | 0.886 | 0.908 | 0.881 |
| EKVX | 0.705 | 0.68 | 0.698 | 0.711 | 0.839 | 0.238 | 0.216 | 0.205 | 0.207 | 0.21 | 0.886 | 0.976 | 1.04 | 1.08 | 1.02 | 0.894 | 0.836 | 0.875 | 0.871 | 0.795 |
| EMC-BAC-2 | 0.465 | 0.309 | 0.383 | 0.37 | 0.341 | 0.901 | 0.765 | 0.765 | 0.845 | 0.882 | 0.803 | 0.757 | 0.792 | 0.815 | 0.784 | 0.694 | 0.682 | 0.718 | 0.705 | 0.768 |
| EPLC-272H | 0.296 | 0.254 | 0.257 | 0.324 | 0.253 | 1.06 | 0.624 | 1.12 | 0.88 | 0.801 | 1.4 | 1.16 | 1.04 | 1.32 | 1.25 | 1.08 | 0.933 | 0.977 | 1.07 | 0.999 |
| H3255 | 0.552 | 0.582 | 0.603 | 0.602 | 0.616 | 0.235 | 0.239 | 0.275 | 0.298 | 0.317 | 0.934 | 0.848 | 1.04 | 1 | 0.898 | 0.652 | 0.516 | 0.675 | 0.718 | 0.711 |
| HARA | 0.433 | 0.201 | 0.516 | 0.454 | 0.435 | 0.718 | 0.702 | 0.688 | 0.706 | 0.758 | 0.963 | 0.928 | 1.08 | 0.983 | 1.01 | 0.762 | 0.758 | 0.843 | 0.814 | 0.857 |
| HCC-15 | 0.608 |  | 0.704 | 0.66 | 0.615 | 0.859 | 0.61 | 0.872 | 0.76 | 0.873 | 0.877 | 0.827 | 0.888 | 0.86 | 0.922 | 0.902 | 0.797 | 0.903 | 0.823 | 0.842 |
